In patent US9771369B2, “Compounds and methods for kinase modulation, and indications therefor” (Plexxikon Inc., priority 2014, dated 2017):

Molecular target: c-kit mutant D816V (Homo sapiens (Human), UniProt P10721, D816V/DEL694-753)
Assay: c-Kit mutant D816V biochemical assay (AlphaScreen kinase activity)
How it was run: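 AlphaScreen with streptavidin donor and PY30 acceptor beads read phosphotyrosine on biotin-(E4Y)10 substrate (30 nM). Enzyme: E. coli-expressed N-His c-Kit D816V, residues 551-934 lacking kinase insert 694-753. Reaction 30 min at room temperature, 10 μM ATP, 5% DMSO; IC50 fitted over 8 three-fold dilutions.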

Sequence of c-kit mutant D816V (P10721 other isoform, or with tags, fused parts or gaps D816V/del 694-753): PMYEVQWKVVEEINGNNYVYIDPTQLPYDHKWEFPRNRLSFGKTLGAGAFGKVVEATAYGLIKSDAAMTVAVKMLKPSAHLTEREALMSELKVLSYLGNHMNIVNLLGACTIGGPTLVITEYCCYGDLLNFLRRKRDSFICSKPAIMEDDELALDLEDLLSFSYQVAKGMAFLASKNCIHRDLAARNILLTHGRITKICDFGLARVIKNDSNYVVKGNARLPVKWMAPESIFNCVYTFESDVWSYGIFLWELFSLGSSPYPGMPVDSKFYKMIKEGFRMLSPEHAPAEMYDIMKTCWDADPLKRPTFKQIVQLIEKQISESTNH

`Cc1cc2c(N3CCC(C)(c4nc(C)c(-c5ccc(OC(F)F)cc5)[nH]4)CC3)ncnc2[nH]1` [P-3196, 4-[4-[5-[4-(difluoromethoxy)phenyl]-4-methyl-1H-imidazol-2-yl]-4-methyl-1-piperidyl]-6-methyl-7H-pyrrolo[2,3-d]pyrimidine] and `Cc1nc(C2(C)CCN(c3ncnc4[nH]nc(C)c34)CC2)[nH]c1-c1cccc(OC(F)F)c1` [P-3201, 4-[4-[5-[3-(difluoromethoxy)phenyl]-4-methyl-1H-imidazol-2-yl]-4-methyl-1-piperidyl]-3-methyl-1H-pyrazolo[3,4-d]pyrimidine] fall in the same range of IC50: 0.0001 to 1 µM for the first, 0.0001 to 1 µM for the second.

`CCc1[nH]c(C2CCN(c3ncnc4[nH]c(-c5cnn(C(F)F)c5)cc34)CC2)nc1C` [P-3197, 6-[1-(difluoromethyl)pyrazol-4-yl]-4-[4-(5-ethyl-4-methyl-1H-imidazol-2-yl)-1-piperidyl]-7H-pyrrolo[2,3-d]pyrimidine] and `CCc1[nH]c(C2CCN(c3ncnc4[nH]c(-c5ccc(C#N)cc5)cc34)CC2)nc1C` [P-3198, 4-[4-[4-(5-ethyl-4-methyl-1H-imidazol-2-yl)-1-piperidyl]-7H-pyrrolo[2,3-d]pyrimidin-6-yl]benzonitrile] fall in the same range of IC50: 0.0001 to 1 µM for the first, 0.0001 to 1 µM for the second.

`COc1ccc(-c2[nH]c(C3(C)CCN(c4ncnc5[nH]c(-c6ccc(C(=O)O)cc6)cc45)CC3)nc2C)cc1F` [P-3199, 4-[4-[4-[5-(3-fluoro-4-methoxy-phenyl)-4-methyl-1H-imidazol-2-yl]-4-methyl-1-piperidyl]-7H-pyrrolo[2,3-d]pyrimidin-6-yl]benzoic acid] and `COc1ccc(-c2[nH]c(C3(C)CCN(c4ncnc5[nH]c(-c6ccc(C(N)=O)cc6)cc45)CC3)nc2C)cc1F` [P-3212, 4-[4-[4-[5-(3-fluoro-4-methoxy-phenyl)-4-methyl-1H-imidazol-2-yl]-4-methyl-1-piperidyl]-7H-pyrrolo[2,3-d]pyrimidin-6-yl]benzamide] fall in the same range of IC50: 0.0001 to 1 µM for the first, 0.0001 to 1 µM for the second.

`Cc1nc(C2(C)CCN(c3ncnc4[nH]nc(C)c34)CC2)[nH]c1-c1ccc(Cl)cc1` [P-3200, 4-[4-[5-(4-chlorophenyl)-4-methyl-1H-imidazol-2-yl]-4-methyl-1-piperidyl]-3-methyl-1H-pyrazolo[3,4-d]pyrimidine] and `COc1ccc(-c2[nH]c(C3(C)CCN(c4ncnc5[nH]nc(C)c45)CC3)nc2C)cc1F` [P-3202, 4-[4-[5-(3-fluoro-4-methoxy-phenyl)-4-methyl-1H-imidazol-2-yl]-4-methyl-1-piperidyl]-3-methyl-1H-pyrazolo[3,4-d]pyrimidine] fall in the same range of IC50: 0.0001 to 1 µM for the first, 0.0001 to 1 µM for the second.

`Cc1nc(C2(C)CCN(c3ncnc4[nH]nc(C)c34)CC2)[nH]c1-c1ccc2c(c1)OC(F)(F)O2` [P-3203, 4-[4-[5-(2,2-difluoro-1,3-benzodioxol-5-yl)-4-methyl-1H-imidazol-2-yl]-4-methyl-1-piperidyl]-3-methyl-1H-pyrazolo[3,4-d]pyrimidine] and `COc1ccc(-c2[nH]c(C3(C)CCN(c4ncnc5[nH]c(-c6ccc(C#N)nc6)cc45)CC3)nc2C)cc1F` [P-3211, 5-[4-[4-[5-(3-fluoro-4-methoxy-phenyl)-4-methyl-1H-imidazol-2-yl]-4-methyl-1-piperidyl]-7H-pyrrolo[2,3-d]pyrimidin-6-yl]pyridine-2-carbonitrile] fall in the same range of IC50: 0.0001 to 1 µM for the first, 0.0001 to 1 µM for the second.

First: Fc1ccc(-c2cc3c(N4CCC(c5nnc(-c6ccc(F)cc6)[nH]5)CC4)ncnc3[nH]2)cc1 [P-3206, 6-(4-fluorophenyl)-4-[4-[5-(4-fluorophenyl)-4H-1,2,4-triazol-3-yl]-1-piperidyl]-7H-pyrrolo[2,3-d]pyrimidine]
Second: COc1cc(-c2cc3c(N4CCC(c5nnc(-c6cccc(OC(F)F)c6)[nH]5)CC4)ncnc3[nH]2)ccn1 [P-3207, 4-[4-[5-[3-(difluoromethoxy)phenyl]-4H-1,2,4-triazol-3-yl]-1-piperidyl]-6-(2-methoxy-4-pyridyl)-7H-pyrrolo[2,3-d]pyrimidine]
The IC50 of the first is lower: 0.0001 to 1 µM for the first, 1 to 10 µM for the second.

`CCOc1ccc(-c2[nH]c(C3(C)CCN(c4ncnc5[nH]c(-c6ccc(OC)nc6)cc45)CC3)nc2C)cc1F` [P-3209, 4-[4-[5-(4-ethoxy-3-fluoro-phenyl)-4-methyl-1H-imidazol-2-yl]-4-methyl-1-piperidyl]-6-(6-methoxy-3-pyridyl)-7H-pyrrolo[2,3-d]pyrimidine] and `CNC(=O)c1ccc(-c2cc3c(N4CCC(C)(c5nc(C)c(-c6ccc(OC)c(F)c6)[nH]5)CC4)ncnc3[nH]2)cn1` [P-3220, 5-[4-[4-[5-(3-fluoro-4-methoxy-phenyl)-4-methyl-1H-imidazol-2-yl]-4-methyl-1-piperidyl]-7H-pyrrolo[2,3-d]pyrimidin-6-yl]-N-methyl-pyridine-2-carboxamide] fall in the same range of IC50: 0.0001 to 1 µM for the first, 0.0001 to 1 µM for the second.

`CCOc1ccc(-c2[nH]c(C3(C)CCN(c4ncnc5[nH]c(-c6cnn(C(F)F)c6)cc45)CC3)nc2C)cc1F` [P-3210, 6-[1-(difluoromethyl)pyrazol-4-yl]-4-[4-[5-(4-ethoxy-3-fluoro-phenyl)-4-methyl-1H-imidazol-2-yl]-4-methyl-1-piperidyl]-7H-pyrrolo[2,3-d]pyrimidine] and `COc1ccc(-c2[nH]c(C3(C)CCN(c4ncnc5[nH]c(-c6ccc(N7CCOCC7)nc6)cc45)CC3)nc2C)cc1F` [P-3215, 4-[5-[4-[4-[5-(3-fluoro-4-methoxy-phenyl)-4-methyl-1H-imidazol-2-yl]-4-methyl-1-piperidyl]-7H-pyrrolo[2,3-d]pyrimidin-6-yl]-2-pyridyl]morpholine] fall in the same range of IC50: 0.0001 to 1 µM for the first, 0.0001 to 1 µM for the second.

`COc1ccc(-c2[nH]c(C3(C)CCN(c4ncnc5[nH]c(-c6ccc(NS(C)(=O)=O)cc6)cc45)CC3)nc2C)cc1F` [P-3213, N-[4-[4-[4-[5-(3-fluoro-4-methoxy-phenyl)-4-methyl-1H-imidazol-2-yl]-4-methyl-1-piperidyl]-7H-pyrrolo[2,3-d]pyrimidin-6-yl]phenyl]methanesulfonamide] and `COc1ccc(-c2[nH]c(C3(C)CCN(c4ncnc5[nH]c(-c6ccc(OCC(=O)O)cc6)cc45)CC3)nc2C)cc1F` [P-3214, 2-[4-[4-[4-[5-(3-fluoro-4-methoxy-phenyl)-4-methyl-1H-imidazol-2-yl]-4-methyl-1-piperidyl]-7H-pyrrolo[2,3-d]pyrimidin-6-yl]phenoxy]acetic acid] fall in the same range of IC50: 0.0001 to 1 µM for the first, 0.0001 to 1 µM for the second.

`COc1ccc(-c2[nH]c(C3(C)CCN(c4ncnc5[nH]c(-c6ccc(C(N)=O)cc6)cc45)CC3)nc2C)cc1C` [P-3216, 4-[4-[4-[5-(4-methoxy-3-methyl-phenyl)-4-methyl-1H-imidazol-2-yl]-4-methyl-1-piperidyl]-7H-pyrrolo[2,3-d]pyrimidin-6-yl]benzamide] and `COc1cccc(-c2[nH]c(C3(C)CCN(c4ncnc5[nH]c(-c6ccc(C(N)=O)cc6)cc45)CC3)nc2C)c1` [P-3225, 4-[4-[4-[5-(3-methoxyphenyl)-4-methyl-1H-imidazol-2-yl]-4-methyl-1-piperidyl]-7H-pyrrolo[2,3-d]pyrimidin-6-yl]benzamide] fall in the same range of IC50: 0.0001 to 1 µM for the first, 0.0001 to 1 µM for the second.

`COc1ccc(-c2[nH]c(C3(C)CCN(c4ncnc5[nH]c(-c6ccc(OCC(=O)O)cc6)cc45)CC3)nc2C)cc1C` [P-3217, 2-[4-[4-[4-[5-(4-methoxy-3-methyl-phenyl)-4-methyl-1H-imidazol-2-yl]-4-methyl-1-piperidyl]-7H-pyrrolo[2,3-d]pyrimidin-6-yl]phenoxy]acetic acid] and `COc1cccc(-c2[nH]c(C3(C)CCN(c4ncnc5[nH]c(-c6ccc(OCC(=O)O)cc6)cc45)CC3)nc2C)c1` [P-3221, 2-[4-[4-[4-[5-(3-methoxyphenyl)-4-methyl-1H-imidazol-2-yl]-4-methyl-1-piperidyl]-7H-pyrrolo[2,3-d]pyrimidin-6-yl]phenoxy]acetic acid] fall in the same range of IC50: 0.0001 to 1 µM for the first, 0.0001 to 1 µM for the second.

`CNC(=O)c1ccc(-c2cc3c(N4CCC(C)(c5nc(C)c(-c6ccc(OC)c(C)c6)[nH]5)CC4)ncnc3[nH]2)cn1` [P-3218, 5-[4-[4-[5-(4-methoxy-3-methyl-phenyl)-4-methyl-1H-imidazol-2-yl]-4-methyl-1-piperidyl]-7H-pyrrolo[2,3-d]pyrimidin-6-yl]-N-methyl-pyridine-2-carboxamide] and `CNC(=O)c1ccc(-c2cc3c(N4CCC(C)(c5nc(C)c(-c6cccc(OC)c6)[nH]5)CC4)ncnc3[nH]2)cn1` [P-3222, 5-[4-[4-[5-(3-methoxyphenyl)-4-methyl-1H-imidazol-2-yl]-4-methyl-1-piperidyl]-7H-pyrrolo[2,3-d]pyrimidin-6-yl]-N-methyl-pyridine-2-carboxamide] fall in the same range of IC50: 0.0001 to 1 µM for the first, 0.0001 to 1 µM for the second.

`COc1ccc(-c2[nH]c(C3(C)CCN(c4ncnc5[nH]c(-c6ccc(N7CCOCC7)nc6)cc45)CC3)nc2C)cc1C` [P-3219, 4-[5-[4-[4-[5-(4-methoxy-3-methyl-phenyl)-4-methyl-1H-imidazol-2-yl]-4-methyl-1-piperidyl]-7H-pyrrolo[2,3-d]pyrimidin-6-yl]-2-pyridyl]morpholine] and `COc1cccc(-c2[nH]c(C3(C)CCN(c4ncnc5[nH]c(-c6ccc(N7CCOCC7)nc6)cc45)CC3)nc2C)c1` [P-3223, 4-[5-[4-[4-[5-(3-methoxyphenyl)-4-methyl-1H-imidazol-2-yl]-4-methyl-1-piperidyl]-7H-pyrrolo[2,3-d]pyrimidin-6-yl]-2-pyridyl]morpholine] fall in the same range of IC50: 0.0001 to 1 µM for the first, 0.0001 to 1 µM for the second.

`CCOc1ccc(-c2[nH]c(C3(C)CCN(c4ncnc5[nH]c(-c6ccc(OCC(=O)O)cc6)cc45)CC3)nc2C)cc1` [P-3224, 2-[4-[4-[4-[5-(4-ethoxyphenyl)-4-methyl-1H-imidazol-2-yl]-4-methyl-1-piperidyl]-7H-pyrrolo[2,3-d]pyrimidin-6-yl]phenoxy]acetic acid] and `CCOc1ccc(-c2[nH]c(C3(C)CCN(c4ncnc5[nH]c(-c6ccc(C(=O)NC)nc6)cc45)CC3)nc2C)cc1` [P-3226, 5-[4-[4-[5-(4-ethoxyphenyl)-4-methyl-1H-imidazol-2-yl]-4-methyl-1-piperidyl]-7H-pyrrolo[2,3-d]pyrimidin-6-yl]-N-methyl-pyridine-2-carboxamide] fall in the same range of IC50: 0.0001 to 1 µM for the first, 0.0001 to 1 µM for the second.
